From paper PMC4476725 (PLoS Pathogens, 2015)
Where two headings read alike, the source gives them in different places.

Key:
[1] = target: T1, wild-type RSV L-P RNA polymerase complex (Human respiratory syncytial virus A, UniProt P28887); format: biochemical
T1 construct: made in house; host or cells: insect cells

HCV polymerase = HCV polymerase (Hepatitis C virus genotype 1b, UniProt Q9WMX2); assay: HCV polymerase inhibition assay; format: biochemical; details: for IC50: read-out: HCV polymerase inhibition class (IC50)
[2] = target: human mitochondrial RNA polymerase (Homo sapiens, UniProt O00411); assay: DdRp assay with human mitochondrial RNA polymerase, single turnover; format: biochemical; details: 100 μM of each NTP
RSV RNP complex = RSV RNP complex (Human respiratory syncytial virus A, UniProt P28887); assay: biochemical; format: biochemical; details: for IC50: read-out: RSV polymerase inhibition class (IC50, RSV RNP complex)
[3] = tested on: influenza strain A/WSN/33 (H1N1); assay: Influenza assay in A549 cells (neuraminidase readout); format: cell-based; details: Influenza virus, 20h
RSV A2 [4] = assay: RSV inhibition by qRT-PCR in HEp-2 cells, RSV A2 strain; format: cell-based; details: human respiratory syncytial virus
RSV replicon = assay: RSV subgenomic replicon assay (luciferase); format: cell-based, Respiratory syncytial virus
Description: The RSV subgenomic replicon (Apath, Brooklyn, NY, USA) was used as previously described. The HeLa-derived cells containing the stable RSV replicon were cultured in DMEM containing 4500 mg/L D-glucose, L-glutamine, and 110 mg/L sodium pyruvate. The medium was further supplemented with 10% (v/v) FBS (Mediatech), 1% (v/v) penicillin/streptomycin (Mediatech), and 10 μg/mL of Blasticidin (BSD) (Invivogen). Cells were maintained at 37°C in a humidified 5% CO2 atmosphere. On the first day, 5000 RSV replicon cells per well were plated in a 96-well plate. On the following day, compounds to be tested were solubilized in 100% DMSO to 100 × the desired final testing concentration. Cells were incubated with compounds for 7 days at 37°C in a 5% CO2 atmosphere before measurement of the luciferase readout. Cell viability (CC50) was measured with a CellTiter-Glo cell proliferation assay (Promega).

HCV replicon = assay: microbe, parasite or virus in culture; format: cell-based; details: Hepatitis C virus
in vitro [5] = details: human
Rhinovirus 1b = assay: Human rhinovirus assay in HeLa-OHIO cells (CPE); format: cell-based; details: Enterovirus
[6] = tested on: RSV A and B clinical isolates; assay: microbe, parasite or virus in culture; format: cell-based; details: human respiratory syncytial virus
[7] = tested on: Parainfluenza virus type-3; assay: PIV-3 antiviral assay in A549 cells; format: cell-based, human PIV-3 C243 strain; details: 168 h, 7 days, qRT-PCR
[8] = target: QUAD-mutant RSV polymerase (Human respiratory syncytial virus A, UniProt P28887, A789V/I796V/L795I/M628L); format: cell-based
RSV A2 [9] = assay: Three-dimensional lung model, primary human tracheal/bronchial epithelial cells infected with RSV A2; format: cell-based; details: human respiratory syncytial virus, Epithelial cell
[10] = tested on: Vesicular stomatitis virus; assay: microbe, parasite or virus in culture; format: cell-based; details: A549, 48 h
in vitro [11] = details: human; remark: listed apart in the source
RSV B1 = assay: RSV inhibition by qRT-PCR in HEp-2 cells, RSV B1 strain; format: cell-based; details: human respiratory syncytial virus, 120 h, 5 days, n = 3, read-out: EC50, inhibition of RNA replication of RSV B1
in vitro [12] = details: human; remark: listed apart in the source
in vitro [13] = details: human; remark: listed apart in the source
RSV A2 [14] = assay: African Green monkey efficacy model; format: in vivo, African Green monkeys (Chlorocebus sabaeus); details: oral BID, 200 mg/kg loading then 50 mg/kg, 6 days
[15] = design: method as in PMID 25667954; details: cited from earlier work
[16] = target: RSV polymerase QUAD mutant (Human respiratory syncytial virus A, UniProt P28887, A789V/I796V/L795I/M628L); assay: Single nucleotide incorporation by recombinant RSV L-P polymerase, QUAD mutant; format: biochemical; details: primer extension from the +3 position, n = 2
[17] = HEp-2, Isolate A1997-12-35, RSV A
[18] = HEp-2, Isolate A1998-03-02, RSV A
[19] = HEp-2, Isolate A1998-12-21, RSV A
[20] = HEp-2, Isolate A2000-03-04, RSV A
[21] = HEp-2, Isolate A2001-02-20, RSV A
[22] = HEp-2, Isolate A2001-03-12, RSV A

T1 sequence (P28887 whole entry): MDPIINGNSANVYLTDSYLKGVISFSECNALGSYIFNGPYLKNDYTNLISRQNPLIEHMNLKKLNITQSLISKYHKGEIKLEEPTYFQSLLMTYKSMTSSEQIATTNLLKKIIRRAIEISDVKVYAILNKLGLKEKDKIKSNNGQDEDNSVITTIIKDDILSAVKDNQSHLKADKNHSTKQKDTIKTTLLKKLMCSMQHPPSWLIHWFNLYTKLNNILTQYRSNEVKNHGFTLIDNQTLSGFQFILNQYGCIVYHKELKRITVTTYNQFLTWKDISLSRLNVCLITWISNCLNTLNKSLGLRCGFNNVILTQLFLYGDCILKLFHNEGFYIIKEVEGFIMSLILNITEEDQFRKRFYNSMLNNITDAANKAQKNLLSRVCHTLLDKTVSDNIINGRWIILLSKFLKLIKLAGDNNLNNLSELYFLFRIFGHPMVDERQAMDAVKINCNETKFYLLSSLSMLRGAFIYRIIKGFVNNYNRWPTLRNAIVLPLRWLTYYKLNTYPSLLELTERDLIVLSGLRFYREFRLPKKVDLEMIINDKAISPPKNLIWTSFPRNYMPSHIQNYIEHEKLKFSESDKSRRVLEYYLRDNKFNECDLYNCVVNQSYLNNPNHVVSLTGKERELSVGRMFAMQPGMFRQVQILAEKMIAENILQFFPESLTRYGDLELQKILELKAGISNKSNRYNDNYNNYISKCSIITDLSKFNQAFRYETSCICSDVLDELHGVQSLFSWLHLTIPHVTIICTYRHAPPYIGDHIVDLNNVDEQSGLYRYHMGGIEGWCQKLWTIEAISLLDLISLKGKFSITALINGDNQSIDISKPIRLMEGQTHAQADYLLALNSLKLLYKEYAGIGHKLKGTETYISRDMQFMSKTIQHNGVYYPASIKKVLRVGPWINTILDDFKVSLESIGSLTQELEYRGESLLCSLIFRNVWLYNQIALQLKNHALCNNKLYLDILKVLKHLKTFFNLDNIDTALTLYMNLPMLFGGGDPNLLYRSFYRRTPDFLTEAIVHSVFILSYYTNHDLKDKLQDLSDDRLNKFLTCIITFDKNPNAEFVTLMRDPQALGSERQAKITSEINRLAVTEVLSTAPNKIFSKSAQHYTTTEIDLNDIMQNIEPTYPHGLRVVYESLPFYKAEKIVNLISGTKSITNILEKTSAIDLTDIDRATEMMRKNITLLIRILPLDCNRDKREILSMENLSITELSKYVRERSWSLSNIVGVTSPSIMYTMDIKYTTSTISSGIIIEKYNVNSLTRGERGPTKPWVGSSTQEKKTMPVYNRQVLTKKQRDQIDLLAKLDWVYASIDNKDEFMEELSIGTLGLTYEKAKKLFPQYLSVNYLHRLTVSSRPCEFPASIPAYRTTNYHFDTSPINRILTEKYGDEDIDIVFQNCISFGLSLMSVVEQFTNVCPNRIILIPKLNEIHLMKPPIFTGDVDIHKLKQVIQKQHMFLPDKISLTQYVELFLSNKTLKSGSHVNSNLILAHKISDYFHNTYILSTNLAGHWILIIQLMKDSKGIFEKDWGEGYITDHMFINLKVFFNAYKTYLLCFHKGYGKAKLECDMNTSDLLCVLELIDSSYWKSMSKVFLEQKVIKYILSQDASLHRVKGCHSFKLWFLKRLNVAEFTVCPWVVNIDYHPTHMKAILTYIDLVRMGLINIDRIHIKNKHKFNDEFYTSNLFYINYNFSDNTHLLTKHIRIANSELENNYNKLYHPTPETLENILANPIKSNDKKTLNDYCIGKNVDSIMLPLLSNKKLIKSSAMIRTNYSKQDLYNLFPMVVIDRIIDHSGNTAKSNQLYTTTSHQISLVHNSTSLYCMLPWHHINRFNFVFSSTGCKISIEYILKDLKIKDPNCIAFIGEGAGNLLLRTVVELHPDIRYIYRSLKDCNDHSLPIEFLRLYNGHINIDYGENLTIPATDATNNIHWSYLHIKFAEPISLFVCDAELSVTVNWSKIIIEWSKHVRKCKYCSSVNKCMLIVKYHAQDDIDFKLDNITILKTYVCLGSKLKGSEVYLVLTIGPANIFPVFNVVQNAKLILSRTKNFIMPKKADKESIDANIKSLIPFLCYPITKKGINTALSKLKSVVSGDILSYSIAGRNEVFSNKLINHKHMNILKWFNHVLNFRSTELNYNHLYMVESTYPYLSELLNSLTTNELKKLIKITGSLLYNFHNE
T1 sequence (P03421 whole entry, further chain): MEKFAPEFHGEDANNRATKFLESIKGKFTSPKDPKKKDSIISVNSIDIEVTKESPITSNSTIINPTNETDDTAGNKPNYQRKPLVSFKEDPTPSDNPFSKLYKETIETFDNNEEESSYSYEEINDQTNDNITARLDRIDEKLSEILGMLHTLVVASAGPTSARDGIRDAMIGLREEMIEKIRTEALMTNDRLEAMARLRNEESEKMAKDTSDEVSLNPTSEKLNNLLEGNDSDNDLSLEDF
RSV RNP complex, sequence (P03421 whole entry): as the sequence (P03421 whole entry, further chain) above
RSV RNP complex, sequence (P28887 whole entry): as the sequence (P28887 whole entry) above

In the case of `[N-]=[N+]=N[C@]1(COP(=O)(O)OP(=O)(O)OP(=O)(O)O)O[C@@H](n2ccc(N)nc2=O)[C@H](O)[C@@H]1O` [4'N3-CTP, reference compound], the “substrate and chain termination profile with recombinant RSV polymerase (in words)” value [1] is reported as “both substrates and chain terminators”, the “inhibition of HCV polymerase (in words)” value (HCV polymerase; Fig 5B) is reported as “dual RSV/HCV polymerase inhibitors” and the IC50 (HCV polymerase; second symbol of RSV / HCV) is reported as under 100 nM. For the same compound, the “recognition as substrate by human mitochondrial RNA polymerase (in words)” value [2] was “efficiently incorporated”, the “inhibition of RSV RNP complex (in words)” value (RSV RNP complex; Fig 5B) was “dual RSV/HCV polymerase inhibitors” and the IC50 (RSV RNP complex; first symbol of RSV / HCV) was 100 to 10000 nM.
With `Nc1ccn([C@@H]2O[C@@](CO)(CCl)[C@@H](O)[C@H]2F)c(=O)n1` [ALS-8112, 2'-fluoro-4'-chloromethyl (2'F-4'ClCH2) cytidine] the EC50 [3] was over 100000 nM, the EC50 (RSV A2 [4]; 120 h, HEp-2 cells, 5 days, qRT-PCR, n = 3, read-out: EC50, inhibition of RNA replication of RSV A2) was 153 ± 76 nM and the EC50 (RSV A2 [4]; HEp-2, read-out: EC50) was 150 nM. For the same compound, the EC50 (RSV replicon; human respiratory syncytial virus, RSV replicon) was 150 nM, the EC50 (HCV replicon; Huh-7, HCV replicon, read-out: HCV EC50) was over 100000 nM and the EC50 (HCV replicon; Huh-7 replicon, read-out: EC50) was over 100000 nM. The CC50 (in vitro [5]) was over 100000 nM, the EC50 (Rhinovirus 1b) was over 100000 nM and the EC50 ([6]; HEp-2, Isolate 1144, RSV B) was 290 ± 20 nM. For the same compound, the EC90 ([6]; HEp-2, Isolate 1144, RSV B) was 1470 ± 220 nM, the EC50 ([6]; HEp-2, Isolate 1262, RSV B) was 110 ± 30 nM and the EC90 ([6]; HEp-2, Isolate 1262, RSV B) was 2180 ± 270 nM. It also gave an EC50 ([6]; HEp-2, Isolate 9320, RSV B) of 90 ± 30 nM, an EC90 ([6]; HEp-2, Isolate 9320, RSV B) of 960 ± 160 nM and an EC50 ([6]; HEp-2, Isolate 18537, RSV B) of 210 ± 60 nM. The EC90 ([6]; HEp-2, Isolate 18537, RSV B) was 990 ± 220 nM, the EC50 [6, 17] was 180 ± 40 nM and the EC90 [6, 17] was 2460 ± 150 nM. It also gave an EC50 [6, 18] of 260 ± 60 nM, an EC90 [6, 18] of 2150 ± 270 nM and an EC50 [6, 19] of 90 ± 20 nM. For the same compound, the EC90 [6, 19] was 1110 ± 540 nM, the EC50 [6, 20] was 180 ± 20 nM and the EC90 [6, 20] was 2180 ± 240 nM. For the same compound, the EC50 [6, 21] was 100 ± 10 nM, the EC90 [6, 21] was 1100 ± 530 nM and the EC50 [6, 22] was 450 ± 70 nM. It also gave an EC90 [6, 22] of 2330 ± 350 nM, an EC50 ([6]; HEp-2, Isolate Pep 121, RSV B) of 320 ± 70 nM and an EC90 ([6]; HEp-2, Isolate Pep 121, RSV B) of 2070 ± 430 nM. The EC50 [7] was 1300 nM, the CC50 (A549; A549 cells, Influenza virus row) was over 100000 nM and the CC50 (A549; human) was over 100000 nM. For the same compound, the “maximum inhibition, QUAD-mutant minigenome” value [8] was “about 60%”, the EC50 (RSV A2 [9]; Disease: Asthma, read-out: EC50) was 730 nM and the EC90 (RSV A2 [9]; Disease: Asthma, read-out: EC90) was 2700 nM. The EC50 (RSV A2 [9]; donor one, Disease: None, read-out: EC50) was 370 nM, the EC90 (RSV A2 [9]; donor one, Disease: None, read-out: EC90) was 2700 nM and the EC50 (RSV A2 [9]; donor two, Disease: None, read-out: EC50) was 90 nM. The EC90 (RSV A2 [9]; donor two, Disease: None, read-out: EC90) was 1300 nM, the EC50 (RSV A2 [9]; range over human donor cells (n = 3), read-out: EC50, RSV RNA replication in donor cells) was 90 to 730 nM and the EC90 (RSV A2 [9]; range over human donor cells (n = 3), read-out: EC90, RSV RNA replication in donor cells) was 1300 to 2700 nM. It also gave an EC50 [10] of 3400 nM, a CC50 (in vitro [11]) of over 100000 nM and an EC50 (RSV B1) of 132 ± 55 nM. It also gave a CC50 (in vitro [12]) of over 100000 nM and a CC50 (in vitro [13]) of over 100000 nM.
For `Nc1ccn([C@@H]2O[C@](CCl)(CI)[C@@H](O)[C@H]2F)c(=O)n1` [ALS-8112-I, 4’-Chloromethyl-2’,5’-dideoxy-2’-fluoro-5’-iodocytidine], the “inhibition of luciferase activity in the RSV replicon (in words)” value (RSV replicon) was “did not significantly inhibit”.
In the case of `CC(C)C(=O)OC[C@@]1(CCl)O[C@@H](n2ccc(N)nc2=O)[C@H](F)[C@@H]1OC(=O)C(C)C` [ALS-8176, 4'-chloromethyl-2'-deoxy-3',5'-di-O-isobutyryl-2'-fluorocytidine], the “difference in RSV RNA titers, vehicle vs treated, BAL” value (RSV A2 [14]; end of treatment) is reported as over 4 log10 copies/mL, the “difference in RSV RNA titers, vehicle vs treated, nasopharyngeal (NP) swab” value (RSV A2 [14]; end of treatment) is reported as “about 3 log10 copies/mL” and the “RSV RNA titer in bronchoalveolar lavage (BAL) samples” value (RSV A2 [14]; end of treatment (Day 5 post-infection), all four animals, LOD 50 copies/mL) is reported as under 50 copies/mL. For the same compound, the oral bioavailability [15] was “high”.
For `C[C@@]1(F)[C@H](O)[C@@H](COP(=O)(O)OP(=O)(O)OP(=O)(O)O)O[C@H]1n1ccc(N)nc1=O` [mericitabine-TP, 2'F-2'Me-CTP, reference compound], the “substrate and chain termination profile with recombinant RSV polymerase (in words)” value ([1]; Fig 5A) was “almost completely inactive”, the “discrimination relative to natural CTP, WT RSV polymerase” value ([1]; Km CTP analog / Km CTP) was “greater than 5,000 fold” and the “level of incorporation by RSV polymerase” value ([1]; at a concentration of 300 μM) was “less than 20%”. For the same compound, the IC50 (HCV polymerase; second symbol of RSV / HCV) was under 100 nM and the IC50 (RSV RNP complex; first symbol of RSV / HCV) was over 10000 nM.
“cytidine triphosphate [CTP, reference compound]” gave a Km ([1]; primer extension from the +3 position, read-out: Km, single nucleotide incorporation, WT RSV L-P) of 0.057 ± 0.009 µM, an IC50 (HCV polymerase) of over 10000 nM and an IC50 (RSV RNP complex) of over 10000 nM. For the same compound, the Km [16] was 0.056 ± 0.01 µM.
